# “And” between values parts separate entries of the source, which are not always exact repeats. Identical values can stand only once.
# Legend:
# Human Recombinant SSAO = biological target: T1, Human Recombinant SSAO (Homo sapiens, UniProt Q16853); assay: Compound oxidation assay (substrate propensity) by SSAO; type: biochemical; settings: for Oxidation by SSAO (hydrogen peroxide generated relative to DMSO): single concentration 30 µM
# T1 sequence (Q16853 1-763): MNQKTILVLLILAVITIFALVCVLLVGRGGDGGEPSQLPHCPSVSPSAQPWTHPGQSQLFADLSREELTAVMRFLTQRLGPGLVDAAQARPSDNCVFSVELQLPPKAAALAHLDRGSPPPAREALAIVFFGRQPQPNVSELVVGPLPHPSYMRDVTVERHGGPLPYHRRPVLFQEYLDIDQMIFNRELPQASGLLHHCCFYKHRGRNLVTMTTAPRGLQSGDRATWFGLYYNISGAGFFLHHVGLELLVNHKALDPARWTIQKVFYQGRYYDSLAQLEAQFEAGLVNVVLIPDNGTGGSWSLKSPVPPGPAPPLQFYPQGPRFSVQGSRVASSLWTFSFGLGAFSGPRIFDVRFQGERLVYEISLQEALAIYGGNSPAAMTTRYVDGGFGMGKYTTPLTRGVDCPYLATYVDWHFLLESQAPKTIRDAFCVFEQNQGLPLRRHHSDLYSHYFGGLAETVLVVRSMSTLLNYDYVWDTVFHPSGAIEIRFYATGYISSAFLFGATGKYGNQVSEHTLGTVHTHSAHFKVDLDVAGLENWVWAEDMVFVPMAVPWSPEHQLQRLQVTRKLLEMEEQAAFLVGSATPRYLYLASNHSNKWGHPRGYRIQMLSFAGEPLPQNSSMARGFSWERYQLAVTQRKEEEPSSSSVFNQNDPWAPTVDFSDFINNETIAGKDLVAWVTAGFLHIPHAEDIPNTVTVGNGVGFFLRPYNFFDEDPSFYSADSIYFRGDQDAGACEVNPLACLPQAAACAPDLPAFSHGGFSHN
# Procedure: For compound oxidation assays, the amount of hydrogen peroxide generated at a single concentration (30 µM) of compound relative to DMSO was measured.
# Data are expressed as mean ± SEM. Subsequent statistical analysis was performed with unpaired two-sided Student’s t tests. *p < 0.05, **p < 0.01, ***p < 0.001and ****p < 0.0001. Source data are provided as a Source Data file.
# This assay determines the substrate propensity of a compound relative to background (dimethyl sulfoxide only). Compound oxidation by rhSSAO was measured by fluorometric assay. Briefly, rhSSAO was incubated for 2 h at 37 °C in HEPES buffer before the addition of an equal volume of Amplex Red ([…]), horseradish peroxidase (4 U/ml), and test compound in the same buffer. The kinetics of the formation of resorufin was measured immediately using Optima reader (BMG Labtech GmbH, Ortenburg, Germany), at 37 °C.
# [1] = tested on: full-thickness excision injury scar; assay: Porcine excision injury model; type: in vivo, pigs
# [2] = Systemic exposure in rat at 1000 mg/kg/day; type: in vivo; settings: daily for 1 week
# Adrenergic β1 = Adrenergic β1 (Homo sapiens, UniProt P08588); assay: Eurofins panel 204010; type: binding
# Chain of Adrenergic β1 (P08588 whole entry): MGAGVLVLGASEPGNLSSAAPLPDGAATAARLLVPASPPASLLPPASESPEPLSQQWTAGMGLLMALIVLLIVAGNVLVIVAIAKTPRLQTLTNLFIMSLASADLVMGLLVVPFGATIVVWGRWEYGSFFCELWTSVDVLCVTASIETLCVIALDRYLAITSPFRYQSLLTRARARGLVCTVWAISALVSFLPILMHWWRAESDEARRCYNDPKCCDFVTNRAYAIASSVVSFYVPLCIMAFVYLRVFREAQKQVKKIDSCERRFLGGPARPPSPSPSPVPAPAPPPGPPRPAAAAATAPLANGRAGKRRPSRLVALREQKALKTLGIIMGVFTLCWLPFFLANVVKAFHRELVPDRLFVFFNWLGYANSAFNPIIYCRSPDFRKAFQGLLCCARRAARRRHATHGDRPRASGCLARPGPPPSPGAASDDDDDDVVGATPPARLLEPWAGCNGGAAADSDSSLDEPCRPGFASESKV
# Androgen (Testosterone) = assay: Eurofins panel 206000; type: binding, human
# [3] = tested on: Calcium Channel L-Type, Dihydropyridine; assay: Eurofins panel 214600; type: binding, rat
# Cannabinoid CB1 = Cannabinoid CB1 (Homo sapiens, UniProt P21554); assay: Eurofins panel 217030; type: binding
# Chain of Cannabinoid CB1 (P21554 whole entry): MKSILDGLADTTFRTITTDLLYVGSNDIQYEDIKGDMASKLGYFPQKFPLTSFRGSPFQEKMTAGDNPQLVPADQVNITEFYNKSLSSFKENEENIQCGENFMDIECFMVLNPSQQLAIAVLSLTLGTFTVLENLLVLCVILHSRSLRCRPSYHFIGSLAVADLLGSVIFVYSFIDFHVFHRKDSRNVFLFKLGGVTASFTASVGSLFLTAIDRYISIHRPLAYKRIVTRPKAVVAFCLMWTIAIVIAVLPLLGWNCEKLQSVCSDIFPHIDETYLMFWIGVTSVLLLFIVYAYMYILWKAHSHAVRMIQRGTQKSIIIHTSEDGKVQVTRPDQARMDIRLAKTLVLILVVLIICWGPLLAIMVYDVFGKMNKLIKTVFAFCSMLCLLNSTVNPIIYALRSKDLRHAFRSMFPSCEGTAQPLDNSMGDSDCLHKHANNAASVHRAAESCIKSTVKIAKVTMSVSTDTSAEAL
# Dopamine D2S = Dopamine D2S (Homo sapiens, UniProt P14416); assay: Eurofins panel 219700; type: binding
# Chain of Dopamine D2S (P14416 1-414 isoform P14416-2): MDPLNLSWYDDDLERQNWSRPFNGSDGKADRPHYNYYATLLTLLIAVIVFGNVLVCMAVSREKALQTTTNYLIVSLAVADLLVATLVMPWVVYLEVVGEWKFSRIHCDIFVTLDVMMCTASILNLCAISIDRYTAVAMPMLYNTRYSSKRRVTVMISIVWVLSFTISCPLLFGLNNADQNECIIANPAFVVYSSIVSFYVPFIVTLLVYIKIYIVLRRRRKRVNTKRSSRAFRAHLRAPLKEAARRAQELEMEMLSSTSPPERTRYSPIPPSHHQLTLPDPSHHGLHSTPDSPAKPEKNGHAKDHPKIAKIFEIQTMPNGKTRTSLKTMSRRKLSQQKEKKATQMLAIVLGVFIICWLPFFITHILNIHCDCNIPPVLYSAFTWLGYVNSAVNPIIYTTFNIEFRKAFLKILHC
# [4] = tested on: GABAA, Flunitrazepam, Central; assay: Eurofins panel 226600; type: binding, rat
# Glucocorticoid = Glucocorticoid (Homo sapiens, UniProt P04150); assay: Eurofins panel 232030; type: binding
# Chain of Glucocorticoid (P04150 whole entry): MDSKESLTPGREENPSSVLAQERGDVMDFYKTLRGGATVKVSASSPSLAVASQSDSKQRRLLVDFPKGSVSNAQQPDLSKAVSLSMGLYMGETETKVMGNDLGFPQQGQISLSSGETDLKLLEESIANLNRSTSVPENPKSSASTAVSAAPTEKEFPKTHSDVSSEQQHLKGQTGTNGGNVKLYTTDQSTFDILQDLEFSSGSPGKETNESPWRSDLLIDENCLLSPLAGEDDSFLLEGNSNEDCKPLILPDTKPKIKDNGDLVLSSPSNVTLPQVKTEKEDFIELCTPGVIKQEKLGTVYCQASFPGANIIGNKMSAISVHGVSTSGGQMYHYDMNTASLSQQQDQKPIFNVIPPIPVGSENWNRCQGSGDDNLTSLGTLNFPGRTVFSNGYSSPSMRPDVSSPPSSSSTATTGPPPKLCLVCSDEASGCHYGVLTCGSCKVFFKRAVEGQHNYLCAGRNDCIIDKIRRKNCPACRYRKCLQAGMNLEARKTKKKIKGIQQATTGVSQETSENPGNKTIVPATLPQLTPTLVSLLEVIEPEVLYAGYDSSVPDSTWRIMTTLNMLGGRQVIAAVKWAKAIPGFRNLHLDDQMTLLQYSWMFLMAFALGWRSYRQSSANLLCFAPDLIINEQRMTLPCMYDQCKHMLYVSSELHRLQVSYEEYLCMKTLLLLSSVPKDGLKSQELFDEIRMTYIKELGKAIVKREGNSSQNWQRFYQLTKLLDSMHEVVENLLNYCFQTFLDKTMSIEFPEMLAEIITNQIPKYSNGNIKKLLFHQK
# Histamine H2 = Histamine H2 (Homo sapiens, UniProt P25021); assay: Eurofins panel 239710; type: binding
# Chain of Histamine H2 (P25021 whole entry): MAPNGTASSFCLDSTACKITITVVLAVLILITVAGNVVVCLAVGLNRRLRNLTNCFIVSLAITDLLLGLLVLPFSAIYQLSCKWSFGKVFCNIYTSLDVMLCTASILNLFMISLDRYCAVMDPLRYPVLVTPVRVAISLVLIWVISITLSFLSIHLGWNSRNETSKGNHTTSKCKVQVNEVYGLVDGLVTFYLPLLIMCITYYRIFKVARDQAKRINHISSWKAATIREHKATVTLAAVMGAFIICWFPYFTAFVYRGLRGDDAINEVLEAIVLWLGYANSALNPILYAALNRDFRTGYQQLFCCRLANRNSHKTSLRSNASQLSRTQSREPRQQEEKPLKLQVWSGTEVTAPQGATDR
# Muscarinic M1 = Muscarinic M1 (Homo sapiens, UniProt P11229); assay: Eurofins panel 252610; type: binding
# Chain of Muscarinic M1 (P11229 whole entry): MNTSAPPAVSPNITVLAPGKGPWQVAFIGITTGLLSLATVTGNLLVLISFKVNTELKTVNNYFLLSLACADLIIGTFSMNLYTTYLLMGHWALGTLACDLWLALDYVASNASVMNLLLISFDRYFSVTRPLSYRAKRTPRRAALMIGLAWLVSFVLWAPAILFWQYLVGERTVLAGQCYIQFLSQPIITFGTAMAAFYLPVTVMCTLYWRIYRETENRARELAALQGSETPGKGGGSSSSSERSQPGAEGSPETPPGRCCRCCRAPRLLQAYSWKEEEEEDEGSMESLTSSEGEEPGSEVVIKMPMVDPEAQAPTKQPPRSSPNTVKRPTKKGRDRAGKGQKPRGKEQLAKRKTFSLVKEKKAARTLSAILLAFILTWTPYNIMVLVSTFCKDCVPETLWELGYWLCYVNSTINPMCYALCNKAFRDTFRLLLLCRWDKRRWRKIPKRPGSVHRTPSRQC
# Opiate δ1 (OP1, DOP) = Opiate δ1 (OP1, DOP) (Homo sapiens, UniProt P41143); assay: Eurofins panel 260130; type: binding
# Chain of Opiate δ1 (OP1, DOP) (P41143 whole entry): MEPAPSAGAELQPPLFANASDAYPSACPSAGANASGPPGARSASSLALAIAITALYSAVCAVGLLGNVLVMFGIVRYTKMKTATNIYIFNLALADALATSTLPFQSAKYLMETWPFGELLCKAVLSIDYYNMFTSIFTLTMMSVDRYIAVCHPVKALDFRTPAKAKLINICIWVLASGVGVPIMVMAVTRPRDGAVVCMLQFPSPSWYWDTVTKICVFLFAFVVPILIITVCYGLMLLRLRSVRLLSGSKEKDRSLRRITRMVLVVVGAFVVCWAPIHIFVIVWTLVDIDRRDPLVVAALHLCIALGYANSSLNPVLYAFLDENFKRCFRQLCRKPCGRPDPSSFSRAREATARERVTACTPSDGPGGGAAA
# [5] = biological target: Serotonin (5-Hydroxytryptamine) 5-HT3 (Homo sapiens, UniProt P46098); assay: Eurofins panel 271910; type: binding
# Chain of Serotonin (5-Hydroxytryptamine) 5-HT3 (P46098 24-478): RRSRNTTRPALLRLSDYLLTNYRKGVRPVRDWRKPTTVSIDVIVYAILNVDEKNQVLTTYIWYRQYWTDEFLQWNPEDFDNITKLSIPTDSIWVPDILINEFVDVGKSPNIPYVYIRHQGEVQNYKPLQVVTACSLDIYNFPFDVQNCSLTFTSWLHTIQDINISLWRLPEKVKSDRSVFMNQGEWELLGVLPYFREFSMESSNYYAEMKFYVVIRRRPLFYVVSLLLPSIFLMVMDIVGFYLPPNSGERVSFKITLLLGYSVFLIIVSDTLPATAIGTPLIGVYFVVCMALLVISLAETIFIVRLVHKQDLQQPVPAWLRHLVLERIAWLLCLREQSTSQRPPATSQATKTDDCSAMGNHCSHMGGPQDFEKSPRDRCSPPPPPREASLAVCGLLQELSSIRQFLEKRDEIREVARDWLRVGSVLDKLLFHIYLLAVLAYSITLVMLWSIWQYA
# Sodium Channel, Site 2 = assay: Eurofins panel 279510; type: binding, rat
# [6] = biological target: Transporter, Dopamine (DAT) (Homo sapiens, UniProt Q01959); assay: Eurofins panel 220320; type: binding
# Chain of Transporter, Dopamine (DAT) (Q01959 whole entry): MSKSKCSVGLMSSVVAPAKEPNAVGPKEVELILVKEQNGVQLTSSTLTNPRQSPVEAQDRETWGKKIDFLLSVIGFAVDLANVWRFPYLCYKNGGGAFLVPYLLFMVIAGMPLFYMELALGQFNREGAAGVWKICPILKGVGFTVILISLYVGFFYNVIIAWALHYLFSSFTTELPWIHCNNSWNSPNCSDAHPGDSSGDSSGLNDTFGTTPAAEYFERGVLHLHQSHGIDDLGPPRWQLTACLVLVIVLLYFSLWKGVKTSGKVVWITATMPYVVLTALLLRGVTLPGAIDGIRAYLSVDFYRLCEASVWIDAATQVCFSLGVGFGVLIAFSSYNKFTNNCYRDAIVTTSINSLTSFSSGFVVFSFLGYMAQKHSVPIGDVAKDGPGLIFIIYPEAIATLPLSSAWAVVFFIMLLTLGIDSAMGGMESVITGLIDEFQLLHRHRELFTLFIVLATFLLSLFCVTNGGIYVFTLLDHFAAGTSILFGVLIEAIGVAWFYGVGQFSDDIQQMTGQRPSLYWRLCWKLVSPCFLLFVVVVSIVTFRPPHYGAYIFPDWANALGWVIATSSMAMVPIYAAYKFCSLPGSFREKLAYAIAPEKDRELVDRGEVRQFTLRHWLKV
compound,measurement,setting,value
NC/C=C(\F)CS(=O)(=O)c1ccccc1 [PXS-4787],Oxidation by SSAO (hydrogen peroxide generated relative to DMSO),Human Recombinant SSAO,1.3
same,Surgeon score dose response,[1]; 0.5 %,16 and 20 and 14
same,Surgeon score dose response,[1]; 3%,11 and 10 and 12 and 9
same,Lox enzyme activity in scars,"[1]; 3% cream, 24 hours after final application",significantly inhibited
same,scar appearance rank (0 best to 3 worst) by blinded plastic surgeons,"[1]; 3% cream, treatment commenced at 3 weeks post-injury, analysed at 12 weeks",significant improvements in scar appearance
same,LOX activity S/N,"[1]; PXS-4787, individual samples",2.7 and 1.5 and 1.8 and 1.4 and 1.3
same,systemic levels,[2],negligible
same,inhibition at 10 µM,Adrenergic β1; 10 µM,-3%
same,% Inh.,Androgen (Testosterone); 10 µM,2%
same,% Inh.,[3]; 10 µM,-4%
same,inhibition at 10 µM,Cannabinoid CB1; 10 µM,8%
same,inhibition at 10 µM,Dopamine D2S; 10 µM,13%
same,% Inh.,[4]; 10 µM,-1%
same,inhibition at 10 µM,Glucocorticoid; 10 µM,3%
same,inhibition at 10 µM,Histamine H2; 10 µM,-4%
same,inhibition at 10 µM,Muscarinic M1; 10 µM,56%
same,inhibition at 10 µM,"Opiate δ1 (OP1, DOP); 10 µM",5%
same,inhibition at 10 µM,[5]; 10 µM,6%
same,% Inh.,"Sodium Channel, Site 2; 10 µM",13%
same,inhibition at 10 µM,[6]; 10 µM,6%
"N#CCCN [BAPN, β-aminoproprionitrile, reference compound]","SSAO specificity (Fig 2F), oxidation, individual experiments",Human Recombinant SSAO; 30,1.24 and 1.43 and 1.55 and 1.3 and 1.39
same,"SSAO specificity (Fig 2F), oxidation, individual experiments",Human Recombinant SSAO; 60,2.24 and 2.72 and 2.02 and 1.5 and 1.72
same,"SSAO specificity (Fig 2F), oxidation, individual experiments",Human Recombinant SSAO; 90,4.91 and 2.48 and 2.66 and 3.66
NC/C=C(\F)C(F)(F)S(=O)(=O)c1ccccc1 [PXS-6302],"SSAO specificity (Fig 2F), oxidation, individual experiments",Human Recombinant SSAO; 30,1.48 and 1.33 and 1.2 and 1.19 and 1.18 and 1.24 and 1.1 and 1.3 and 1.37 and 1.13 and 1.23
same,"SSAO specificity (Fig 2F), oxidation, individual experiments",Human Recombinant SSAO; 60,1.4 and 1.33 and 1.41
same,"SSAO specificity (Fig 2F), oxidation, individual experiments",Human Recombinant SSAO; 90,1.53 and 2.99 and 4.36
same,Oxidation by SSAO (hydrogen peroxide generated relative to DMSO),Human Recombinant SSAO,1.3
same,Excision injury scar scores (average score of all surgeons for each wound/tx group),[1]; 3%,9 and 6.667 and 6 and 5.667 and 5 and 6.333 and 9.667 and 9.333
same,scar score 1–10 by blinded plastic surgeons,"[1]; 3% cream once daily, 12 weeks",significantly higher scores
same,LOX activity in scar tissue,"[1]; 24 h after the final dose, once daily cream",significantly reduced
same,S/N ration LOX activity (Fig. 8A),"[1]; porcine scar 24 h after final daily application, individual samples",1.073 and 0.9572 and 1.114 and 1.845 and 1.506
same,systemic levels,[2],negligible
same,inhibition at 30 µM,Adrenergic β1; read-out: % Inh.,4%
same,% Inh.,Androgen (Testosterone); 30 µM,-14%
same,% Inh.,[3]; 30 µM,2%
same,inhibition at 30 µM,Cannabinoid CB1; read-out: % Inh.,4%
same,inhibition at 30 µM,Dopamine D2S; read-out: % Inh.,13%
same,% Inh.,[4]; 30 µM,4%
same,inhibition at 30 µM,Glucocorticoid; read-out: % Inh.,13%
same,inhibition at 30 µM,Histamine H2; read-out: % Inh.,5%
same,inhibition at 30 µM,Muscarinic M1; read-out: % Inh.,13%
same,inhibition at 30 µM,"Opiate δ1 (OP1, DOP); read-out: % Inh.",26%
same,inhibition at 30 µM,[5]; read-out: % Inh.,6%
same,% Inh.,"Sodium Channel, Site 2; 30 µM",66%
same,inhibition at 30 µM,[6]; read-out: % Inh.,50%
